Experimental data published in US8445503B2, “Inhibitors of polo-like kinase” (Elan Pharmaceuticals, Inc., priority 2009, dated 2013).

Experiments:
Format in all cases: biochemical
GST-PLK1 = GST-PLK1 (Homo sapiens, UniProt P53350); test: PLK TR-FRET peptide assay, PLK1; conditions: read-out: Plk1 IC50
GST-PLK3 = molecular target: T1, GST-PLK3 (Homo sapiens, UniProt Q9H4B4); test: PLK TR-FRET peptide assay, PLK3; conditions: PLK TR-FRET peptide assay, GST-PLK3; read-out: Plk3 IC50
T1 construct: purchased CarnaBio

GST-PLK2 = molecular target: T2, GST-PLK2 (Homo sapiens, UniProt Q9NYY3); test: PLK TR-FRET peptide assay, PLK2; conditions: PLK TR-FRET peptide assay, GST-PLK2; read-out: Plk2 IC50
T2 construct: purchased CarnaBio
T2 sequence (Q9NYY3 whole entry): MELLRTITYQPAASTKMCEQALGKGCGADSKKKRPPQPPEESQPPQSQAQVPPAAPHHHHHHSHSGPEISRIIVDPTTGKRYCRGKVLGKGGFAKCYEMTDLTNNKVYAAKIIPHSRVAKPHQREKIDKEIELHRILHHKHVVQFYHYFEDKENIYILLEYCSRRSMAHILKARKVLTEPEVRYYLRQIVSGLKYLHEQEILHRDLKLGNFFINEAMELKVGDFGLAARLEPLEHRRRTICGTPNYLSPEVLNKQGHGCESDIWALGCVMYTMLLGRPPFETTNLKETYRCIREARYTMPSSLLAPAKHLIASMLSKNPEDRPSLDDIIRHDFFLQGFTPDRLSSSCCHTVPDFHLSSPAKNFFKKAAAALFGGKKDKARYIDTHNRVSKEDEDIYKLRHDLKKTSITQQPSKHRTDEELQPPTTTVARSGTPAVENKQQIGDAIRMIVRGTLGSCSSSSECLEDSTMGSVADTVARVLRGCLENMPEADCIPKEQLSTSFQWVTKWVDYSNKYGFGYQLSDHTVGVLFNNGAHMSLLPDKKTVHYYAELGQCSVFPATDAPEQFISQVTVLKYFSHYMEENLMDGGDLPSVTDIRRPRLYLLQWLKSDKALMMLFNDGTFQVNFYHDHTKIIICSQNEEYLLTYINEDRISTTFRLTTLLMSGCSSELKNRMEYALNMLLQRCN

T1 sequence (Q9H4B4 whole entry): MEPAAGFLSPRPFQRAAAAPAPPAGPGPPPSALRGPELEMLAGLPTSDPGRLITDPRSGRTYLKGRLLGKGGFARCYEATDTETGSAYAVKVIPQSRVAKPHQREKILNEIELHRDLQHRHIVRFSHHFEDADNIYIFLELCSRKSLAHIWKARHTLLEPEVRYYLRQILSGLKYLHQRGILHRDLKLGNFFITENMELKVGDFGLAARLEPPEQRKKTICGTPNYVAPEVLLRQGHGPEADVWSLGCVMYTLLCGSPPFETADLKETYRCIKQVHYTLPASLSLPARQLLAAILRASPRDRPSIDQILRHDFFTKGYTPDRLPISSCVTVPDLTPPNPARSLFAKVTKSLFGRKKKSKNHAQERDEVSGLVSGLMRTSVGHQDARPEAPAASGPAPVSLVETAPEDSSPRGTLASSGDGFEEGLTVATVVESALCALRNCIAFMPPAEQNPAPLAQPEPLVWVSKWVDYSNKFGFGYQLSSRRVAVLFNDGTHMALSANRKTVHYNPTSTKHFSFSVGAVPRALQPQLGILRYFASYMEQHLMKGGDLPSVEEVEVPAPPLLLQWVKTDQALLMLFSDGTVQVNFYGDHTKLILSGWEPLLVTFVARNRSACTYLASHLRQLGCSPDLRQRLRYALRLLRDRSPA
Chain of GST-PLK1 (P53350 whole entry): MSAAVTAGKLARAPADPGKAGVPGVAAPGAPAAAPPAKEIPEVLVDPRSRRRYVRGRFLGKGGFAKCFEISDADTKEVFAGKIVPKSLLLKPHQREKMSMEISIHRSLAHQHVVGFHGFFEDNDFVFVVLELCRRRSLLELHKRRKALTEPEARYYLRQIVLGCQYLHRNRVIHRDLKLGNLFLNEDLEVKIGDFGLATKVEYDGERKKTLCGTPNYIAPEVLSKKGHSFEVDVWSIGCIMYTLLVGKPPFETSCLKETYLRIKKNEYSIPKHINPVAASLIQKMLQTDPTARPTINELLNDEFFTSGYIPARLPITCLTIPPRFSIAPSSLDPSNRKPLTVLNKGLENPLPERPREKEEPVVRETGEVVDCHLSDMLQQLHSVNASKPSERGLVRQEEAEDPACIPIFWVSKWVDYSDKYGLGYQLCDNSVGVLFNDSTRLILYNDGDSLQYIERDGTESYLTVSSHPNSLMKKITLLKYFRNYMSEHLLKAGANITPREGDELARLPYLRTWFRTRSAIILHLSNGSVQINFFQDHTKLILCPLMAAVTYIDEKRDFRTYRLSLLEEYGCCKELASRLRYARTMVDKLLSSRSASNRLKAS

| Compound | IC50 (GST-PLK1) [µM] | IC50 (GST-PLK3) [µM] | IC50 (GST-PLK2) [µM] |
| --- | --- | --- | --- |
| CC[C@@]12CCCN1c1nc(-n3ccnc3-c3ccccn3)ncc1N(C)C2=O [Example 145, (S)-6a-ethyl-5-methyl-2-(2-(pyridin-2-yl)-1H-imidazol-1-yl)-6a,7,8,9-tetrahydropyrrolo[2,1-h]pteridin-6(5H)-one] | 10 to 50 | 10 to 50 | 1 to 10 |
| CC[C@@H]1C(=O)N(C)c2cnc(-n3ccnc3-c3ccncc3)nc2N1C1CC1 [Example 147, (R)-8-cyclopropyl-7-ethyl-5-methyl-2-(2-(pyridin-4-yl)-1H-imidazol-1-yl)-7,8-dihydropteridin-6(5H)-one] | > 50 | > 50 | 1 to 10 |
| CC[C@@H]1C(=O)N(C)c2cnc(-n3ccnc3-c3ncccn3)nc2N1C(C)C [Example 148, (R)-7-ethyl-8-isopropyl-5-methyl-2-(2-(pyrimidin-2-yl)-1H-imidazol-1-yl)-7,8-dihydropteridin-6(5H)-one] | 1 to 10 | 10 to 50 | < 1 |
| CC[C@@H]1C(=O)N(C)c2cnc(-n3ccnc3-c3cncnc3)nc2N1C(C)C [Example 149, (R)-7-ethyl-8-isopropyl-5-methyl-2-(2-(pyrimidin-5-yl)-1H-imidazol-1-yl)-7,8-dihydropteridin-6(5H)-one] | 10 to 50 | 10 to 50 | < 1 |
| CC[C@@H]1C(=O)N(C)c2cnc(-n3ccnc3-c3cccnn3)nc2N1C(C)C [Example 152, (R)-7-ethyl-8-isopropyl-5-methyl-2-(2-(pyridazin-3-yl)-1H-imidazol-1-yl)-7,8-dihydropteridin-6(5H)-one] | 10 to 50 | > 50 | < 1 |
| CC[C@@H]1C(=O)N(C)c2cnc(-n3ccnc3-c3ccccn3)nc2N1C(C)C [Example 153, (R)-7-ethyl-8-isopropyl-5-methyl-2-(2-(pyridin-2-yl)-1H-imidazol-1-yl)-7,8-dihydropteridin-6(5H)-one] | 1 to 10 | 1 to 10 | < 1 |
| CC[C@@H]1C(=O)N(C)c2cnc(-n3ccnc3-c3cccnc3)nc2N1C(C)C [Example 154, (R)-7-ethyl-8-isopropyl-5-methyl-2-(2-(pyridin-3-yl)-1H-imidazol-1-yl)-7,8-dihydropteridin-6(5H)-one] | 1 to 10 | 10 to 50 | < 1 |
| CC[C@@H]1C(=O)N(C)c2cnc(-n3ccnc3-c3nccs3)nc2N1C1CCOCC1 [Example 157, (R)-7-ethyl-5-methyl-8-(tetrahydro-2H-pyran-4-yl)-2-(2-(thiazol-2-yl)-1H-imidazol-1-yl)-7,8-dihydropteridin-6(5H)-one] | 1 to 10 | 10 to 50 | < 1 |
| CC[C@@H]1C(=O)N(C)c2cnc(-n3ccnc3-c3cncnc3)nc2N1C1CCCC1 [Example 159, (R)-8-cyclopentyl-7-ethyl-5-methyl-2-(2-(pyrimidin-5-yl)-1H-imidazol-1-yl)-7,8-dihydropteridin-6(5H)-one] | < 1 | 1 to 10 | < 1 |
| CC[C@@H]1C(=O)N(C)c2cnc(-n3ccnc3-c3cncnc3)nc2N1C1CCC1 [Example 176, (R)-8-cyclobutyl-7-ethyl-5-methyl-2-(2-(pyrimidin-5-yl)-1H-imidazol-1-yl)-7,8-dihydropteridin-6(5H)-one] | 1 to 10 | > 50 | < 1 |
| CC[C@@H]1C(=O)N(C)c2cnc(-n3ccnc3-c3ncccn3)nc2N1C1CCC1 [Example 183, (R)-8-cyclobutyl-7-ethyl-5-methyl-2-(2-(pyrimidin-2-yl)-1H-imidazol-1-yl)-7,8-dihydropteridin-6(5H)-one] | 1 to 10 | 10 to 50 | < 1 |
| CC[C@@H]1C(=O)N(C)c2cnc(-n3nccc3-c3ccccc3)nc2N1C(C)C [Example 188, (R)-7-ethyl-8-isopropyl-5-methyl-2-(5-phenyl-1H-pyrazol-1-yl)-7,8-dihydropteridin-6(5H)-one] | < 1 | 1 to 10 | < 1 |
| CC[C@@]12CCCN1c1nc(-n3ncnc3-c3ccccc3)ncc1N(C)C2=O [Example 189, (S)-6a-ethyl-5-methyl-2-(5-phenyl-1H-1,2,4-triazol-1-yl)-6a,7,8,9-tetrahydropyrrolo[2,1-h]pteridin-6(5H)-one] | 1 to 10 | 1 to 10 | < 1 |
| CC[C@@H]1C(=O)N(C)c2cnc(-n3ncnc3-c3ccccc3)nc2N1C(C)C [Example 195, (R)-7-ethyl-8-isopropyl-5-methyl-2-(5-phenyl-1H-1,2,4-triazol-1-yl)-7,8-dihydropteridin-6(5H)-one] | < 1 | < 1 | < 1 |
| CC[C@@H]1C(=O)N(C)c2cnc(-n3ccnc3-c3nccs3)nc2N1C1CCOC1 (stereo partly drawn) [Example 221, (7R)-7-ethyl-5-methyl-8-(tetrahydrofuran-3-yl)-2-(2-(thiazol-2-yl)-1H-imidazol-1-yl)-7,8-dihydropteridin-6(5H)-one] | 1 to 10 | 10 to 50 | < 1 |
| CC[C@@H]1C(=O)N(C)c2cnc(-c3n[nH]cc3-c3ccccc3)nc2N1C1CCCC1 [Example 245, (R)-8-cyclopentyl-7-ethyl-5-methyl-2-(4-phenyl-1H-pyrazol-3-yl)-7,8-dihydropteridin-6(5H)-one] | < 1 | 1 to 10 | < 1 |
| CCC1C(=O)Nc2cnc(-n3ccnc3-c3ccccc3)nc2N1NC(=O)OC(C)(C)C (stereo not drawn) [Example 274, tert-Butyl 7-ethyl-6-oxo-2-(2-phenyl-1H-imidazol-1-yl)-6,7-dihydropteridin-8(5H)-ylcarbamate] | > 50 | > 50 | > 50 |
| CCC1C(=O)N(C)c2cnc(-n3ccnc3-c3ccccc3)nc2N1NC(=O)OC(C)(C)C (stereo not drawn) [Example 275, tert-butyl 7-ethyl-5-methyl-6-oxo-2-(2-phenyl-1H-imidazol-1-yl)-6,7-dihydropteridin-8(5H)-ylcarbamate] | > 50 | > 50 | 10 to 50 |
| CCC1C(=O)N(C)c2cnc(-n3ccnc3-c3ccccc3)nc2N1N (stereo not drawn) [Example 278, 8-amino-7-ethyl-5-methyl-2-(2-phenyl-1H-imidazol-1-yl)-7,8-dihydropteridin-6(5H)-one] | 10 to 50 | 10 to 50 | < 1 |
| CCC1C(=O)N(C)c2cnc(-n3ccnc3-c3ccccc3)nc2N1N1CCCC1 (stereo not drawn) [Example 280, 7-ethyl-5-methyl-2-(2-phenyl-1H-imidazol-1-yl)-8-(pyrrolidin-1-yl)-7,8-dihydropteridin-6(5H)-one] | < 1 | 10 to 50 | < 1 |
| CCC1C(=O)N(C)c2cnc(-n3ccnc3-c3ccc(F)cc3)nc2N1c1ccccc1 (stereo not drawn) [Example 291, 7-ethyl-2-(2-(4-fluorophenyl)-1H-imidazol-1-yl)-5-methyl-8-phenyl-7,8-dihydropteridin-6(5H)-one] | 1 to 10 | 1 to 10 | < 1 |
| CC[C@@H]1C(=O)N(C)c2cnc(-c3cnsc3-c3ccc(F)cc3)nc2N1C(C)C [Example 296, (R)-7-ethyl-2-(5-(4-fluorophenyl)isothiazol-4-yl)-8-isopropyl-5-methyl-7,8-dihydropteridin-6(5H)-one] | < 1 | 1 to 10 | < 1 |
| CC[C@@H]1C(=O)N(C)c2cnc(-c3cn[nH]c3-c3ccccn3)nc2N1C1CCCC1 [Example 306, (R)-8-cyclopentyl-7-ethyl-5-methyl-2-(5-(pyridin-2-yl)-1H-pyrazol-4-yl)-7,8-dihydropteridin-6(5H)-one] | < 1 | < 1 | < 1 |
| CN1C(=O)C23CCC(CC2)N3c2nc(-n3ccnc3-c3ccccc3)ncc21 [Example 308, 5-methyl-2-(2-phenyl-1H-imidazol-1-yl)-8,9-dihydro-7H-6a,9-ethanopyrrolo[2,1-h]pteridin-6(5H)-one] | 10 to 50 | > 50 | 1 to 10 |
| CC[C@@H]1CC[C@@]2(CC)C(=O)N(C)c3cnc(-n4ccnc4-c4ccccc4)nc3N12 [Example 309, (6aS,9R)-6a,9-diethyl-5-methyl-2-(2-phenyl-1H-imidazol-1-yl)-6a,7,8,9-tetrahydropyrrolo[2,1-h]pteridin-6(5H)-one] | < 1 | < 1 | < 1 |
| CC[C@@H]1C(=O)N(C)c2cnc(-c3sc(N)nc3-c3ccc(F)cc3)nc2N1C(C)C [Example 318, (R)-2-(2-amino-4-(4-fluorophenyl)thiazol-5-yl)-7-ethyl-8-isopropyl-5-methyl-7,8-dihydropteridin-6(5H)-one] | < 1 | < 1 | < 1 |
| CC[C@@H]1C(=O)N(C)c2cnc(-c3scnc3-c3ccc(F)cc3)nc2N1C(C)C [Example 319, (R)-7-ethyl-2-(4-(4-fluorophenyl)thiazol-5-yl)-8-isopropyl-5-methyl-7,8-dihydropteridin-6(5H)-one] | 1 to 10 | 1 to 10 | < 1 |
| CN1C(=O)C23C=CC(CC2)N3c2nc(-n3ccnc3-c3ccccc3)ncc21 (stereo not drawn) [Example 326, 5-methyl-2-(2-phenyl-1H-imidazol-1-yl)-9H-6a,9-ethanopyrrolo[2,1-h]pteridin-6(5H)-one] | > 50 | > 50 | 1 to 10 |
| CC[C@@H]1C(=O)N(C)c2cnc(-n3ncnc3-c3ccn[nH]3)nc2N1C(C)C [Example 327, (R)-2-(5-(1H-pyrazol-5-yl)-1H-1,2,4-triazol-1-yl)-7-ethyl-8-isopropyl-5-methyl-7,8-dihydropteridin-6(5H)-one] | < 1 | 1 to 10 | < 1 |
| CC[C@@H]1C(=O)N(C)c2cnc(-n3ccnc3-c3ccc(F)cc3)nc2N1C1COC1 [Example 328, (R)-7-ethyl-2-(2-(4-fluorophenyl)-1H-imidazol-1-yl)-5-methyl-8-(oxetan-3-yl)-7,8-dihydropteridin-6(5H)-one] | > 50 | > 50 | 1 to 10 |
